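Exposure lasted 48 hours, with cells grown in 96-well plates and compounds tested at five concentrations. GI50: concentration for 50% inhibition of growth. TGI marks complete inhibition of growth.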 Where a SMILES comes first, the peptide text is derived from it. [ ]: non-standard residue; d: D form. The star is where a group is joined. Phe(4-NO2) = N[CH](Cc1ccc([N+](=O)[O-])cc1)C(=O)O; Boc = CC(C)(C)OC(=O)*
Tests used:
Assay in all cases: growth of human tumour cells (NCI), 48 h
786-0 renal = test system: 786-0 renal
A498 renal = test system: A498 renal
A549 NSCLC = test system: A549 NSCLC
ACHN renal = test system: ACHN renal
BT-549 breast = test system: BT-549 breast
CAKI-1 renal = test system: CAKI-1 renal
CCRF-CEM leukemia = test system: CCRF-CEM leukemia
COLO 205 colon = test system: COLO 205 colon
DU-145 prostate = test system: DU-145 prostate
EKVX NSCLC = test system: EKVX NSCLC
HCC-2998 colon = test system: HCC-2998 colon
HCT-116 colon = test system: HCT-116 colon
HCT-15 colon = test system: HCT-15 colon
HL-60(TB) leukemia = test system: HL-60(TB) leukemia
HOP-62 NSCLC = test system: HOP-62 NSCLC
HOP-92 NSCLC = test system: HOP-92 NSCLC
HS 578T breast = test system: HS 578T breast
HT29 colon = test system: HT29 colon
IGROV1 ovarian = test system: IGROV1 ovarian
K-562 leukemia = test system: K-562 leukemia
KM12 colon = test system: KM12 colon
LOX IMVI melanoma = test system: LOX IMVI melanoma
M14 melanoma = test system: M14 melanoma
MALME-3M melanoma = test system: MALME-3M melanoma
MCF7 breast = test system: MCF7 breast
MDA-MB-231 breast = test system: MDA-MB-231 breast
MDA-MB-435 = test system: MDA-MB-435
MOLT-4 leukemia = test system: MOLT-4 leukemia
NCI-H226 lung = test system: NCI-H226 lung
NCI-H23 lung = test system: NCI-H23 lung
NCI-H460 lung = test system: NCI-H460 lung
NCI-H522 lung = test system: NCI-H522 lung
NCI/ADR-RES ovarian = test system: NCI/ADR-RES ovarian
OVCAR-3 ovarian = test system: OVCAR-3 ovarian
OVCAR-4 ovarian = test system: OVCAR-4 ovarian
OVCAR-5 ovarian = test system: OVCAR-5 ovarian
OVCAR-8 ovarian = test system: OVCAR-8 ovarian
PC-3 prostate = test system: PC-3 prostate
RPMI-8226 leukemia = test system: RPMI-8226 leukemia
RXF 393 renal = test system: RXF 393 renal
SF-268 CNS = test system: SF-268 CNS
SF-295 CNS = test system: SF-295 CNS
SF-539 CNS = test system: SF-539 CNS
SK-MEL-2 melanoma = test system: SK-MEL-2 melanoma
SK-MEL-28 melanoma = test system: SK-MEL-28 melanoma
SK-MEL-5 melanoma = test system: SK-MEL-5 melanoma
SK-OV-3 ovarian = test system: SK-OV-3 ovarian
SN12C renal = test system: SN12C renal
SNB-19 CNS = test system: SNB-19 CNS
SNB-75 CNS = test system: SNB-75 CNS
SR leukemia = test system: SR leukemia
SW-620 colon = test system: SW-620 colon
T-47D breast = test system: T-47D breast
TK-10 renal = test system: TK-10 renal
U251 CNS = test system: U251 CNS
UACC-257 melanoma = test system: UACC-257 melanoma
UACC-62 melanoma = test system: UACC-62 melanoma
UO-31 renal = test system: UO-31 renal
MDA-N = test system: MDA-N

COc1cc(NC(=O)c2ccccc2Nc2ccnc(C(F)(F)F)c2)cc(OC)c1OC
GI50 (786-0 renal): > 100 µM | TGI (786-0 renal): > 100 µM | GI50 (A498 renal): 26.6 µM | TGI (A498 renal): > 100 µM | GI50 (A549 NSCLC): 58.1 µM | TGI (A549 NSCLC): > 100 µM | GI50 (ACHN renal): 99.9 µM | TGI (ACHN renal): > 100 µM | GI50 (BT-549 breast): 43.5 µM | TGI (BT-549 breast): > 100 µM | GI50 (CAKI-1 renal): 50.4 µM | TGI (CAKI-1 renal): > 100 µM | GI50 (CCRF-CEM leukemia): 50.7 µM | TGI (CCRF-CEM leukemia): > 100 µM | GI50 (COLO 205 colon): 41.9 µM | TGI (COLO 205 colon): > 100 µM | GI50 (DU-145 prostate): 95.4 µM | TGI (DU-145 prostate): > 100 µM | GI50 (EKVX NSCLC): 48.3 µM | TGI (EKVX NSCLC): > 100 µM | GI50 (HCC-2998 colon): 88.3 µM | TGI (HCC-2998 colon): > 100 µM | GI50 (HCT-116 colon): 49.6 µM | TGI (HCT-116 colon): > 100 µM | GI50 (HCT-15 colon): 56.1 µM | TGI (HCT-15 colon): > 100 µM | GI50 (HL-60(TB) leukemia): 44.3 µM | TGI (HL-60(TB) leukemia): > 100 µM | GI50 (HOP-62 NSCLC): 88.9 µM | TGI (HOP-62 NSCLC): > 100 µM | GI50 (HOP-92 NSCLC): 23.2 µM | TGI (HOP-92 NSCLC): 74.1 µM | GI50 (HS 578T breast): 58.8 µM | TGI (HS 578T breast): > 100 µM | GI50 (HT29 colon): 65 µM | TGI (HT29 colon): > 100 µM | GI50 (IGROV1 ovarian): 35.1 µM | TGI (IGROV1 ovarian): 89.7 µM | GI50 (K-562 leukemia): 52.8 µM | TGI (K-562 leukemia): > 100 µM | GI50 (KM12 colon): 54.9 µM | TGI (KM12 colon): > 100 µM | GI50 (LOX IMVI melanoma): 75.6 µM | TGI (LOX IMVI melanoma): > 100 µM | GI50 (M14 melanoma): 73.3 µM | TGI (M14 melanoma): > 100 µM | GI50 (MALME-3M melanoma): 82.2 µM | TGI (MALME-3M melanoma): > 100 µM | GI50 (MCF7 breast): 37.1 µM | TGI (MCF7 breast): > 100 µM | GI50 (MDA-MB-231 breast): > 100 µM | TGI (MDA-MB-231 breast): > 100 µM | GI50 (MDA-MB-435): 63.3 µM | TGI (MDA-MB-435): > 100 µM | GI50 (MOLT-4 leukemia): 36.9 µM | TGI (MOLT-4 leukemia): > 100 µM | GI50 (NCI-H226 lung): 77.7 µM | TGI (NCI-H226 lung): > 100 µM | GI50 (NCI-H23 lung): 44 µM | TGI (NCI-H23 lung): > 100 µM | GI50 (NCI-H460 lung): 69.6 µM | TGI (NCI-H460 lung): > 100 µM | GI50 (NCI-H522 lung): 38.2 µM | TGI (NCI-H522 lung): > 100 µM | GI50 (NCI/ADR-RES ovarian): 32.3 µM | TGI (NCI/ADR-RES ovarian): > 100 µM | GI50 (OVCAR-3 ovarian): 22.4 µM | TGI (OVCAR-3 ovarian): > 100 µM | GI50 (OVCAR-4 ovarian): 30.6 µM | TGI (OVCAR-4 ovarian): > 100 µM | GI50 (OVCAR-5 ovarian): > 100 µM | TGI (OVCAR-5 ovarian): > 100 µM | GI50 (OVCAR-8 ovarian): 69.6 µM | TGI (OVCAR-8 ovarian): > 100 µM | GI50 (PC-3 prostate): 35.3 µM | TGI (PC-3 prostate): > 100 µM | GI50 (RPMI-8226 leukemia): 36.3 µM | TGI (RPMI-8226 leukemia): > 100 µM | GI50 (RXF 393 renal): > 100 µM | TGI (RXF 393 renal): > 100 µM | GI50 (SF-268 CNS): > 100 µM | TGI (SF-268 CNS): > 100 µM | GI50 (SF-295 CNS): 41.9 µM | TGI (SF-295 CNS): > 100 µM | GI50 (SF-539 CNS): > 100 µM | TGI (SF-539 CNS): > 100 µM | GI50 (SK-MEL-2 melanoma): 51.1 µM | TGI (SK-MEL-2 melanoma): > 100 µM | GI50 (SK-MEL-28 melanoma): > 100 µM | TGI (SK-MEL-28 melanoma): > 100 µM | GI50 (SK-MEL-5 melanoma): 25.4 µM | TGI (SK-MEL-5 melanoma): > 100 µM | GI50 (SK-OV-3 ovarian): > 100 µM | TGI (SK-OV-3 ovarian): > 100 µM | GI50 (SN12C renal): 52.9 µM | TGI (SN12C renal): > 100 µM | GI50 (SNB-19 CNS): 77.1 µM | TGI (SNB-19 CNS): > 100 µM | GI50 (SNB-75 CNS): 34.8 µM | TGI (SNB-75 CNS): > 100 µM | GI50 (SR leukemia): 47.3 µM | TGI (SR leukemia): > 100 µM | GI50 (SW-620 colon): > 100 µM | TGI (SW-620 colon): > 100 µM | GI50 (T-47D breast): 17.7 µM | TGI (T-47D breast): 91.9 µM | GI50 (TK-10 renal): 72.3 µM | TGI (TK-10 renal): > 100 µM | GI50 (U251 CNS): 82.7 µM | TGI (U251 CNS): > 100 µM | GI50 (UACC-257 melanoma): 88.2 µM | TGI (UACC-257 melanoma): > 100 µM | GI50 (UACC-62 melanoma): 36.8 µM | TGI (UACC-62 melanoma): > 100 µM | GI50 (UO-31 renal): 19.8 µM | TGI (UO-31 renal): 92.1 µM

COC(=O)CCC(NC(=O)OC(C)(C)C)C(=O)NC(Cc1ccc([N+](=O)[O-])cc1)C(=O)NC(CCC(=O)OC)C(=O)OC (configuration not stated) (Boc-Glu(OMe)-[Phe(4-NO2)]-Glu(OMe)-OMe; configuration not given here)
TGI (786-0 renal): > 100 µM | TGI (A498 renal): > 100 µM | TGI (A549 NSCLC): > 100 µM | TGI (ACHN renal): > 100 µM | TGI (CAKI-1 renal): > 100 µM | TGI (CCRF-CEM leukemia): 36.8 µM | TGI (COLO 205 colon): > 100 µM | TGI (DU-145 prostate): > 100 µM | TGI (EKVX NSCLC): > 100 µM | TGI (HCC-2998 colon): > 100 µM | TGI (HCT-116 colon): > 100 µM | TGI (HCT-15 colon): > 100 µM | TGI (HOP-62 NSCLC): > 100 µM | TGI (HOP-92 NSCLC): > 100 µM | TGI (HS 578T breast): > 100 µM | TGI (HT29 colon): > 100 µM | TGI (IGROV1 ovarian): > 100 µM | TGI (K-562 leukemia): > 100 µM | TGI (KM12 colon): > 100 µM | TGI (LOX IMVI melanoma): 80.2 µM | TGI (M14 melanoma): > 100 µM | TGI (MALME-3M melanoma): > 100 µM | TGI (MCF7 breast): > 100 µM | TGI (MDA-MB-231 breast): > 100 µM | TGI (MDA-MB-435): > 100 µM | TGI (MDA-N): > 100 µM | TGI (MOLT-4 leukemia): 49.9 µM | TGI (NCI-H226 lung): > 100 µM | TGI (NCI-H23 lung): > 100 µM | TGI (NCI-H460 lung): > 100 µM | TGI (NCI-H522 lung): > 100 µM | TGI (NCI/ADR-RES ovarian): > 100 µM | TGI (OVCAR-3 ovarian): > 100 µM | TGI (OVCAR-4 ovarian): > 100 µM | TGI (OVCAR-5 ovarian): > 100 µM | TGI (OVCAR-8 ovarian): > 100 µM | TGI (PC-3 prostate): > 100 µM | TGI (RPMI-8226 leukemia): 67.3 µM | TGI (RXF 393 renal): > 100 µM | TGI (SF-268 CNS): > 100 µM | TGI (SF-295 CNS): > 100 µM | TGI (SF-539 CNS): > 100 µM | TGI (SK-MEL-2 melanoma): > 100 µM | TGI (SK-MEL-28 melanoma): > 100 µM | TGI (SK-MEL-5 melanoma): > 100 µM | TGI (SK-OV-3 ovarian): > 100 µM | TGI (SN12C renal): > 100 µM | TGI (SNB-19 CNS): > 100 µM | TGI (SNB-75 CNS): 80.9 µM | TGI (SR leukemia): 51.6 µM | TGI (SW-620 colon): > 100 µM | TGI (T-47D breast): > 100 µM | TGI (TK-10 renal): > 100 µM | TGI (UACC-257 melanoma): 25.3 µM | TGI (UACC-62 melanoma): > 100 µM | TGI (UO-31 renal): > 100 µM

Reference: PubChem BioAssay (NCI)
